In assay [1] the test system is female spontaneously hypertensive (SHR) rats. As to the kind of experiment: Cyclosporine A-induced nephrotoxicity, 14 days dosing, serum BUN (Example 63). In kind it is in vivo. Here is the method: All experiments were carried out using female spontaneously hypertensive (SHR) rats, weight range 160-200 gm, obtained from Taconic Farms. […] Three thromboxane antagonists have been studied. […] Thromboxane antagonists have been administered as the sodium salt dissolved in saline, the sodium salt dissolved in 0.1% NaHCO3 or the free acid suspended in 1% Methocel.

Assay [2] shares this test system. As to the kind of experiment: Cyclosporine A-induced nephrotoxicity, 5 week study, serum BUN, serum creatinine, creatinine clearance (Example 64). The conditions noted are these: for Mean Serum BUN Values: Compound 63 (10 mg/kg/day) and Cyclosporine A; for Mean Serum Creatinine Levels: Compound 63 (10 mg/kg/day) and Cyclosporine. Here is the method: Experiments were carried out using groups of 6 female spontaneously hypertensive (SHR) rats, weight range 166-194 gm, obtained form Taconic Farms. […] At weekly intervals form 2 weeks onwards, animals were placed in individual metabolism cages and 24 hr urin samples collected, the volume measured and the creatinine levels determined (Lakeshore Diagnostic Laboratories). Creatinine clearance per rat was calculated from the formula: [formula] where Ucr = concentration of creatine in urine • Per = concentration of creatinine in plasma • V = volume of urine flow in ml/min
After removal from the metabolism cage, a blood sample was taken from each rat for determination of serum BUN and creatinine (Lakeshore Diagnostic Laboratories). In a preliminary study, groups of 8 rats were dosed as above for 2 weeks only and serum samples removed for determination of BUN and creatinine as above.

For assay [3] the test system is unchanged. As to the kind of experiment: Cyclosporine A-induced nephrotoxicity, pilot study, 2 weeks dosing, serum BUN and creatinine (Example 64). Type of assay: in vivo. To be noted: for Serum BUN / Serum Creatinine: 2 weeks, means ± S.E.M. (n = 8).
Assay [4] has as its system rats. To be noted: cyclosporine A nephrotoxicity model, Penico et al. 1986; cited from earlier work.
Setting [5] is: Cyclosporine A and Compound 63 3 mg/kg/day.
Where [6] appears, read: Cyclosporine A and Compound 63 10 mg/kg/day.

As to `O=C(O)CC1CCCc2c1n(Cc1ccc(Cl)cc1)c1ccc(F)cc21` (racemic) [Compound 1, 9-p-chlorobenzyl-6-fluoro-1,2,3,4-tetrahydracarbazol-1-yl-acetic acid], the “inhibition of the increase in serum BUN” value in assay [1] (Table 1 (Experiment 1), 3 mg/kg/day in saline with cyclosporine A) is reported as “significant inhibition”.

Take `CS(=O)(=O)c1ccc(Cn2c3c(c4cc(F)cc(F)c42)CCCC3CC(=O)O)cc1` (single isomer, unassigned) [Compound 63]: the “Mean Serum BUN Values” in assay [2] (week 2) is 26.4 ± 0.9 mg/dL; in assay [2] (week 3), 22.3 ± 1.7 mg/dL; in assay [2] (week 4), 24.0 ± 1.4 mg/dL; in assay [2] (week 5), 21.0 ± 1.1 mg/dL. In addition, the Mean Serum Creatinine Levels in assay [2] (week 2) came to 0.51 ± 0.03 mg/dL; in assay [2] (week 3), 0.44 ± 0.01 mg/dL; in assay [2] (week 4), 0.54 ± 0.02 mg/dL; in assay [2] (week 5), 0.42 ± 0.01 mg/dL. For the same compound, the “prevention of cyclosporine A-induced changes (serum BUN, creatinine clearance)” value in assay [2] (cotreatment with Compound 63 (10 mg/kg/day), 5 week study) is recorded as “prevented”. The “cyclosporine A-induced nephrotoxicity” value in assay [2] (overall conclusion of Example 64) is reported as “inhibits”. For the same compound, the “creatinine clearance, Compound 63 and cyclosporine A compared to cyclosporine A alone” value in assay [2] (week 3) is listed as “significantly different”; in assay [2] (week 5, p = 0.07) it was “just failed to reach statistical significance”. Also, the “serum BUN, Compound 63 and cyclosporine A compared to cyclosporine A alone” value in assay [2] (weeks 3 and 5) was “significantly different”. Further, the “reduction of the increase in serum BUN” value in assay [3] (3 or 10 mg/kg/day with cyclosporine A, pilot study) was “significantly reduced the increase in serum BUN to control levels”. The “Serum BUN” value worked out at 20.8 ± 1.0 mg/dL in assay [3] (setting [5]) and 22.2 ± 0.7 mg/dL in assay [3] (setting [6]). For the same compound, the “Serum Creatinine” value was 0.64 ± 0.02 mg/dL in assay [3] (setting [5]) and 0.65 ± 0.04 mg/dL in assay [3] (setting [6]). Also, the “reduction of the increase in serum creatinine” value in assay [3] (higher dose (10 mg/kg/day) with cyclosporine A, pilot study, p = 0.07) is “failed to reach statistical significance”; in assay [3] (lower dose (3 mg/kg/day) with cyclosporine A, pilot study), “significantly reduced the increase in serum creatinine”.

Take `O=C(O)CC1CCCc2c1n(Cc1ccc(Cl)cc1)c1c(F)cc(F)cc21` (single isomer, unassigned; (-)) [Compound 37, (-)-9 p-Chlorobenzyl-6,8-difluoro-1,2,3,4-tetrahydrocarbazol-1-yl-acetic acid]: in assay [1] (both doses (3 and 10 mg/kg/day), suspension of the free acid, with cyclosporine A), the “inhibition of the rise in serum BUN” value is on record as “significant inhibition”.

Consider `CS(=O)(=O)c1ccc(Cn2c3c(c4cc(F)cc(F)c42)CCCC3CC(=O)O)cc1` (single isomer, unassigned; (-)) [Compound 50, (-)9-p-Methylsulfonylbenzyl-6,8-difluoro-1,2,3,4-tetrahydrocarbazol-1-yl acetic acid], for which the “effects on cyclosporine A-induced rises in serum BUN” value in assay [1] (both 3 and 10 mg/kg/day, suspension of the free acid (Table 4)) was “effective”.

Regarding `Cc1c(Cn2ccnc2)c2ccccc2n1CCC(=O)O` [Uk-38,485], in assay [4], the glomerular filtration rate result was “increased” and the “urinary TxB2” value is “reduced”.

The values are drawn from patent EP0307077A1, “Tetrahydrocarbazoles for the improvement of cyclosporin therapy” (MERCK FROSST CANADA INC., priority 1987, dated 1989).
